Like-named read-outs stand apart in the source and are kept apart here.
Experiments:
occludin in Caco-2 cells = test: Confocal microscopy imaging of occludin; assay type: cell-based, human; details: 24 h; for occludin distribution / location: 100 nM toxin; for occludin distribution, positive controls: 0.005% Triton X-100, 100 mM NaBT, 1 μM STP
Method: Tight-junction strands are composed of membrane integral proteins, occludin being the best-studied member. We evaluate the integrity of such tight-junctions in Caco-2 cells treated with 100 nM OA, DTX1 and DTX2 for 24 h by labeling occludin. […] (Figure 5C).
Alexa Fluor® 488-labeled anti-occludin mouse monoclonal antibody from Invitrogen (Camarillo, CA, USA) was used for visualizing occludin, as previously described.
Briefly, differentiated Caco-2 monolayers were treated with OA, DTX1, DTX2, vehicle and positive controls of apoptosis and cellular death: staurosporine (STP), sodium butyrate (NaBT) and Triton-X 100. Immediately after treatments, the cells were fixed and incubated with the anti-occludin antibody. Each experimental condition was performed in duplicate. Confocal imaging was then carried out with a 40× oil immersion objective of a Nikon Eclipse TE2000-E inverted microscope attached to the C1 laser confocal system and EZ-C1 V.2.20 software (Nikon Instruments Europe B.V., Amstelveen, Netherlands). An Argon laser was used to excite the Alexa Fluor 488 conjugated antibody.

[1] = test system: differentiated Caco-2 cells; test: AlamarBlue metabolic activity (viability) assay; assay type: cell-based, human; details: 1-1000 nM toxin, 6-72 h; highest 1000 nM for 72 h
Method: Metabolic activity assay: Cytotoxic effects of OA, DTX1 and DTX2 (1, 10, 20, 40, 100, 200, 500 and 1000 nM) in differentiated Caco-2 cells have been evaluated in a time-dependent manner by the AlamarBlue metabolic activity assay. Incubation with 0.01% Triton X-100 has been used as a positive control of death. Data are shown in Figure 2 as the percent of fluorescence vs. control.
The viability of the Caco-2 cells was measured by Alamar Blue assay, as previously described. Briefly, the Caco-2 cells were seeded onto 96-well plates at an initial concentration of 25,000 cells/mL and cultured until differentiation (21 days) with medium renewal every 2–3 days. Subsequently, cells were treated with increasing concentrations of OA, DTX1, DTX2 and Triton X-100 in the presence of AlamarBlue; then, fluorescence was measured at 6, 8, 10, 12, 24, 48 and 72 hours of incubation using a FL600 Microplate Fluorescence Reader from BioTek (Winooski, VT, USA) at an excitation wavelength of 530 nm and an emission wavelength of 590 nm. Control cells were considered as having 100% viability, and the results are expressed as the percentage of the fluorescence of treated cells versus the fluorescence of control ones.

[2] = test system: differentiated Caco-2 monolayers; test: Caco-2 permeability assay with microsphere-based immunoassay quantification; assay type: in vitro ADME, human; details: for transport across the Caco-2 monolayer (apical to basolateral): 50 and 100 nM, 3, 6, 12 and 24 h
Method: With the aim of evaluating the transport of OA, DTX1 and DTX2 through the cell monolayer, we performed the permeability assays as described in Section 4.7. Caco-2 cell monolayers were incubated with OA, DTX1 and DTX2 for 3, 6, 12 and 24 h. […] According to the results, almost all the OA and DTX2 remain in the apical side (Figure 6 A,D and C,F). […] Likewise, in the absence of a cell monolayer (shown as no cells in Figure 6), all the toxins easily flow over inserts.
The permeability assay was carried out as previously described. During the assays, cell monolayer integrity was evaluated by measuring TEER at the start and end of the experiment. Once the incubation with the toxins (OA, DTX1 and DTX2) finished (after 3, 6, 12 or 24 h), the medium was collected from both the insert (donor compartment/apical side of the monolayer) and the well (receiver compartment/basolateral side of the monolayer) for toxin quantification purposes. Previously, we confirmed that the toxins easily flow over the naked inserts.
OA, DTX1 and DTX2 samples taken from the inserts/donor compartments and wells/receptor compartments where quantified, as previously described by Fraga et al.. In order to consider the cross-reactivity of the analyzed derivatives of the okadaic acid, DTX-1 and DTX-2, calibration curves were prepared using calibration solutions with CRMs of DTX-1 and DTX-2. Therefore, the quantification of DTX-1 and DTX-2 samples collected from permeability assays were quantified against their respective calibration curves.

[3] = test system: differentiated Caco-2 monolayers; test: Annexin V-FITC apoptosis detection, confocal imaging; assay type: cell-based, human; details: 24 h; for annexin V-FITC fluorescence (apoptosis): 100 nM toxin; for annexin V-FITC fluorescence (apoptosis / cell death), positive controls: 1 μM STP, 100 mM NaBT, 0.005% Triton X-100
Excerpt: Cell membrane integrity assay: Some fluorescent methods allow a non-destructive evaluation of apoptosis by detecting changes in the structure of cell membranes. Annexin V has a high affinity for phosphatidylserine (PS), a phospholipid component located on the inner surface of the lipid bilayer of the cellular plasma membrane. During early apoptosis processes, this PS migrates to the outer portion, becomes exposed on the surface of the cell and can be detected by binding to annexin V labeled with a fluorescent dye. The annexin V assay was carried out in differentiated Caco-2 monolayers that were treated for 24 h with 100 nM of OA, DTX1, DTX2 or vehicle. Incubation with 0.005% Triton X-100 was used as a positive control of cell death and 1 μM staurosporine (STP) and 100 mM sodium butyrate (NaBT) as inductors of cell apoptosis.
To visualize apoptosis by confocal microscopy in the toxin-treated Caco-2 monolayers, an apoptosis detection kit containing annexin V conjugated with FITC from Immunostep (Salamanca, Spain) was used.
Caco-2 cells were seeded on glass coverslips at an initial concentration of 65 × 10^3 cells/mL and cultured for 21 days until differentiation with medium renewal each 2–3 days. On the 21st day, the cell medium was removed, and the monolayers were treated for 24 h with toxins: OA, DTX1, DTX2, vehicle and positive controls of apoptosis and cellular death (staurosporine (STP), sodium butyrate (NaBT) and Triton-X 100). Immediately after the 24 h of incubation, the medium was removed, and the cells were rinsed 3 times with PBS just before the addition of annexin V-FITC in a proportion of 1:100 diluted in the provided binding buffer. After 15 min of incubation in the dark at room temperature, the cells were rinsed again 3 times with PBS and fixed using paraformaldehyde 2% for 15 min at 4 °C. Finally, another 3 washes with PBS were required prior to mounting the coverslips over microscope glass slides with 10 μL of PBS/Glycerol (1:1) and sealing the edges with nail varnish. Confocal imaging was then carried out with a 40× oil immersion objective of a Nikon Eclipse TE2000-E inverted microscope attached to the C1 laser confocal system and EZ-C1 V.2.20 software (Nikon Instruments Europe B.V., Amstelveen, Netherlands). An argon laser was used to excite the annexin V-FITC conjugated protein (λ excitation = […], λ emission = […]).

PP2A = details: cited from earlier work; for inhibition equivalency factor (IEF): PP2A
[4] = test system: differentiated Caco-2 monolayers; test: Trans-epithelial electrical resistance (TEER) measurement; assay type: cell-based, human; details: for change in TEER values: 10, 50 and 100 nM, 3, 6, 12 and 24 h
Method: We assessed tight junction formation stability through measurements of trans-epithelial electrical resistance (TEER). […] We studied the changes that OA, DTX1 and DTX2 induced in the TEER of the Caco-2 monolayer as a function of time. Differentiated Caco-2 monolayers were incubated with 10, 50 and 100 nM OA, DTX1 and DTX2. TEER was measured immediately before the toxins addition and after 3, 6, 12 and 24 h of incubation with them.
Trans epithelial electric resistance (TEER) was measured across differentiated Caco-2 monolayers, as previously described. The measurements were performed before the treatment with OA, DTX1 and DTX2 (controls), and after each of the incubation times established: 3, 6, 12 and 24 h. Only inserts with TEER higher than 300 Ωcm^2 before the addition of the toxin were used for further testing.

mice [5] = details: cited from earlier work; for minimum lethal dose: mice, i.p.
PP1 = details: cited from earlier work
mice [6] = details: cited from earlier work; for lethal oral dose: mice; for lethal oral dose / mice dead: oral
Caco-2 cells [7] = test system: Caco-2 cells; parameters: method as in PMID 21093526; details: after 24 h; cited from earlier work
mice [8] = details: oral administration to mice; cited from earlier work
Caco-2 cells [9] = test system: Caco-2 cells; parameters: method as in PMID 10806372; details: 1–2 μM; cited from earlier work
Caco-2 monolayers = details: cited from earlier work
[10] = EFSA, based on mice i.p. toxicity, reference OA

## C=C1C(O)C2OC3(CCC(C=CC(C)C4CC(C)=CC5(OC(CC(C)(O)C(=O)O)CCC5O)O4)O3)CCC2OC1C(O)CC(C)C1CCCC2(OCCCC2C)O1 (stereo not shown) [DTX2, dinophysistoxin-2]
Occludin in Caco-2 cells
  occludin distribution / location: no modifications on the distribution of occludin
[1]
  fluorescence intensity (percent of viability vs. control): did not show any decrease in fluorescence intensity
[2]
  transport across the Caco-2 monolayer (apical to basolateral): unable to cross the Caco-2 monolayer
[3]
  annexin V-FITC fluorescence (apoptosis): Lack of fluorescence
PP2A
  toxicity relative to OA: equal toxicity
[4]
  change in TEER values: did not induce any change
Mice [5]; [10]
  toxicity equivalent factor (TEF): 0.6
Mice [5]; acute intraperitoneal toxicity in mice
  toxicity equivalent factor (TEF): 0.6
Mice [5]
  minimum lethal dose: 350 μg/kg b.w.

## Triton X-100
Occludin in Caco-2 cells
  occludin distribution, positive controls: redistribution of occludin with adjacent diffuse intracellular staining and a granular appearance
[3]
  annexin V-FITC fluorescence (apoptosis / cell death), positive controls: heavily damaged cell monolayer with noticeable loss of substrate adhesion and fluorescent green dots

## C=C1[C@@H](O)[C@@H]2O[C@]3(CC[C@H](/C=C/[C@@H](C)[C@@H]4CC(C)=C[C@@]5(O[C@H](C[C@@](C)(O)C(=O)O)CC[C@H]5O)O4)O3)CC[C@H]2O[C@@H]1[C@@H](O)C[C@H](C)[C@H]1O[C@@]2(CC[C@H]1C)OCCC[C@H]2C [DTX1, dinophysistoxin-1]
Occludin in Caco-2 cells
  occludin distribution / location: fragmented and less uniform staining of occludin
[1]
  fluorescence intensity (percent of viability vs. control): did not show any decrease in fluorescence intensity
[2]; 100 nM, 24 h
  amount of toxin in the basolateral side: increase in the amount of toxin in the basolateral side
  initial amount recovered from the basolateral side: ~50%
[2]; as stated in abstract
  concentration at which toxin significantly crosses the intestinal epithelium: above 100 nM
[3]
  annexin V-FITC fluorescence (apoptosis): Lack of fluorescence
PP2A; higher IC50 than OA
  inhibition equivalency factor (IEF): 0.6–0.9
PP2A; lower IC50 than OA
  inhibition equivalency factor (IEF): 1.6–2.4
PP2A; catalytic subunit PP2A
  dissociation constant, fold lower compared to OA: 1.6 fold
[4]; 50 nM, 24 h
  change in TEER value: significantly decreased
[4]; 100 nM, 12 and 24 h
  change in TEER value: decrease was much more noticeable
[4]; 100 nM, 12 h
  TEER values lowered to: 50%
[4]; 100 nM, 24 h
  TEER values lowered to: 70%
[4]; as stated in abstract
  concentration disrupting the integrity of Caco-2 monolayers: above 50 nM
[4]; for 12 h and above
  concentration disrupting the monolayer integrity: > 100 nM
Mice [5]; [10]
  toxicity equivalent factor (TEF): 1
Mice [5]
  minimum lethal dose: 160 µg/kg
PP1
  inhibition equivalency factor (IEF), IC50 OA / IC50 analogue: 0.4–0.9
Mice [6]
  oral toxicity compared with i.p. injection: only slightly less toxic when administered orally than when given by i.p. injection
Mice [6]; ref 58
  lethal oral dose: 300 μg/kg b.w.

## CN[C@@H]1C[C@H]2O[C@@](C)([C@@H]1OC)n1c3ccccc3c3c4c(c5c6ccccc6n2c5c31)C(=O)NC4 [STP, staurosporine]
Occludin in Caco-2 cells
  occludin distribution, positive controls: redistribution of occludin with adjacent diffuse intracellular staining and a granular appearance
[3]
  annexin V-FITC fluorescence (apoptosis / cell death), positive controls: evident FITC green fluorescence zones

## CCCC(=O)[O-].[Na+] [NaBT, sodium butyrate]
Occludin in Caco-2 cells
  occludin distribution, positive controls: redistribution of occludin with adjacent diffuse intracellular staining and a granular appearance
[3]
  annexin V-FITC fluorescence (apoptosis / cell death), positive controls: evident FITC green fluorescence zones

## C=C1[C@@H](O)[C@@H]2O[C@]3(CC[C@H](/C=C/[C@@H](C)[C@@H]4CC(C)=C[C@@]5(O[C@H](C[C@@](C)(O)C(=O)O)CC[C@H]5O)O4)O3)CC[C@H]2O[C@@H]1[C@@H](O)C[C@H](C)[C@H]1O[C@@]2(CCCCO2)CC[C@H]1C [OA, okadaic acid]
Occludin in Caco-2 cells
  occludin distribution / location: no modifications on the distribution of occludin
Caco-2 cells [7]
  applied dose found in the basolateral side: 2%
  applied dose trapped into Caco-2 cells: 2%–3
[1]
  fluorescence intensity (percent of viability vs. control): did not show any decrease in fluorescence intensity
[2]
  transport across the Caco-2 monolayer (apical to basolateral): unable to cross the Caco-2 monolayer
[3]
  annexin V-FITC fluorescence (apoptosis): Lack of fluorescence
[4]
  change in TEER values: did not induce any change
Mice [8]
  time to repair of damage to the intestinal ultrastructure: ≤ 24 h
Mice [5]; [10]
  toxicity equivalent factor (TEF): 1
Caco-2 cells [9]
  cell membrane damage and LDH release: no cell membrane damage nor LHD release
Caco-2 monolayers; 1 to 2 μM, 30 to 90 min
  TEER changes: significant TEER reduction
Caco-2 monolayers
  concentration that decreased the TEER of Caco-2 monolayers: ≥ 0.6 µM
Caco-2 monolayers; differentiated Caco-2 monolayers, up to 200 nM for 24h
  TEER changes: absence of TEER changes
Mice [6]; ref 54
  lethal oral dose: 400 μg/kg b.w.
Mice [6]; ref 55
  lethal oral dose: 880 μg/kg b.w.
Mice [6]; 1000 μg/kg b.w
  mice dead: 0/5
Mice [6]; 2000 μg/kg b.w.
  mice dead: 4/5

— PMC3920258, “Experimental Basis for the High Oral Toxicity of Dinophysistoxin 1: A Comparative Study of DSP” (Toxins, 2014)
